According to US20050176813A1, “Novel chalcone derivatives and uses thereof” (priority 2002, published 2005):
Like-named read-outs stand apart in the source and are kept apart here.

Experiments:
[1] = biological target: Kv1.3 (Homo sapiens, UniProt P22001); test: Kv1.3 channel block, estimated Kd (Table 1); assay type: binding; settings: for Block phasic or not: Kv1.3
[2] = Cytotoxicity in vitro (remark in Table 1, summary of Table 2); assay type: cell-based; settings: cells not given
Method: Jurkat E6-1 and MEL were seeded at 5×10^5 cells/ml in twelve-well plates. Drug (100 nM, 1 μM, 2.5 μM and 10 μM) was added in a final DMSO concentration of 0.1%. After 48 h of incubation, cells were harvested by sucking them off the plates. Cells were centrifuged, resuspended in 0.5 ml PBS containing 1 μg/ml propidium iodide (PI), and red fluorescence measured on a FACScan flow cytometer (Becton Dickinson) after 20 min (10^4 cells of every sample being analyzed). The percentage of dead cells was determined by their PI uptake. Incubation with 20% DMSO served as a control for setting the gates of the flow cytometer for dead cells.

[3] = Kv1.3, peak, read-out: Est. Kd, Kd peak
[4] = Kv1.3, end, read-out: Est. Kd, Kd end

Sequence of Kv1.3 (P22001 whole entry): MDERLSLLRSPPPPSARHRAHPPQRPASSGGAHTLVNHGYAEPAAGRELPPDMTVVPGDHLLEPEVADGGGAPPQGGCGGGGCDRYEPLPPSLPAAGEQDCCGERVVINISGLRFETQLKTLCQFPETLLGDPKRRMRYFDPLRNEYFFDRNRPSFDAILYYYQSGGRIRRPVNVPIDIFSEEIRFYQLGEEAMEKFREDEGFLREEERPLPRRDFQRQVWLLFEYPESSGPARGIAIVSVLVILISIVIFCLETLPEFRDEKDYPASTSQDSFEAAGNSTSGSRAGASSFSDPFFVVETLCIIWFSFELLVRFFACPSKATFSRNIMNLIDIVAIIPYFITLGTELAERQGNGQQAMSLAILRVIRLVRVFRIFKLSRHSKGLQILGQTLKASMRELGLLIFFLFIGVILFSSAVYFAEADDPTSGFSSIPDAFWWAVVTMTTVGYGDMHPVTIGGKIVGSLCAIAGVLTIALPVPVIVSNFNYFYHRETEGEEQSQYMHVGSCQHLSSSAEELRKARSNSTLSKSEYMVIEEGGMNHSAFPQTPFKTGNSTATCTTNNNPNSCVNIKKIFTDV

| SMILES | Kd [1, 3] [µM] | Kd [1, 4] [µM] | also measured |
| --- | --- | --- | --- |
| COc1c(C(=O)/C=C/c2ccccc2C(F)(F)F)c(O)c(OC)c2occc12 [Example 31] | 40 | – | Block phasic or not [1]: not phasic; melting point: 150 to 151 °C |
| COc1c(C(=O)/C=C/c2cccc(C(F)(F)F)c2)c(O)c(OC)c2occc12 [Example 32] | 40 | – | Block phasic or not [1]: not phasic |
| COc1c(C(=O)/C=C/c2ccc(C(F)(F)F)cc2)c(O)c(OC)c2occc12 [Example 33] | 10 | 4 | – |
| COc1c(C(=O)/C=C/c2cccc(Oc3ccccc3)c2)c(O)c(OC)c2occc12 [Example 34] | – | – | Effect on Kv1.3 ([1]; at 5 μM): no effect at 5 μM Not tested against other channels |
| COc1c(C(=O)/C=C/c2cccc(Oc3ccc(Cl)cc3)c2)c(O)c(OC)c2occc12 [Example 35] | – | – | Effect on Kv1.3 ([1]; at 5 μM): no effect at 5 μM Not tested against other channels; melting point: 107 to 108 °C |
| COc1c(C(=O)/C=C/c2cccc(Oc3cccc(C(F)(F)F)c3)c2)c(O)c(OC)c2occc12 [Example 36] | – | – | Effect on Kv1.3 ([1]; at 5 μM): no effect at 5 μM Not tested against other channels |
| COc1c(C(=O)/C=C/c2cccc(Oc3ccc(C)cc3)c2)c(O)c(OC)c2occc12 [Example 37] | – | – | Effect on Kv1.3 ([1]; at 1 μM): no effect at 1 μM Not tested against other channels |
| COc1c(C(=O)/C=C/c2cccc3ccccc23)c(O)c(OC)c2occc12 [Example 38] | – | – | Effect on Kv1.3 ([1]; at 5 μM): no effect at 5 μM Not tested against other channels |
| COc1c(C(=O)/C=C/c2ccc3ccccc3c2)c(O)c(OC)c2occc12 [Example 39] | – | – | Effect on Kv1.3 ([1]; at 5 μM): no effect at 5 μM Not tested against other channels |
| COc1c(C(=O)/C=C/C=C/c2ccccc2)c(O)c(OC)c2occc12 [Example 40] | – | – | Effect on Kv1.3 ([1]; at 1 μM): no effect at 1 μM Not tested against other channels |
| COc1c(C(=O)/C=C/c2ccccc2C(=O)O)c(O)c(OC)c2occc12 [Example 41] | – | – | Effect on Kv1.3 ([1]; at 20 μM): no effect at 20 μM Not tested against other channels |
| COc1c(C(=O)/C=C/c2ccc(N(C)C)cc2)c(O)c(OC)c2occc12 [Example 42] | 14 | 5 | – |
| COc1c(C(=O)/C=C/c2ccccc2O)c(O)c(OC)c2occc12 [Example 43] | 16 | 8 | – |
| COc1c(C(=O)/C=C/C=C/c2ccc(N(C)C)cc2)c(O)c(OC)c2occc12 [Example 44] | 22 | – | Block phasic or not [1]: not phasic |
| COc1c(C(=O)/C=C/c2ccco2)c(O)c(OC)c2occc12 [Example 45] | 20 | 4 | – |
| COc1c(C(=O)/C=C/c2ccc(CO)o2)c(O)c(OC)c2occc12 [Example 46] | – | – | Effect on Kv1.3 ([1]; at 20 μM): no effect at 20 μM Not tested against other channels; melting point: 120 to 121 °C |
| COc1c(C(=O)/C=C/c2c[nH]c3ccccc23)c(O)c(OC)c2occc12 [Example 47] | – | – | Effect on Kv1.3 ([1]; at 5 μM): no effect at 5 μM Not tested against other channels; melting point: 138 to 140 °C |
| COc1c(C(=O)/C=C/c2cccnc2)c(O)c(OC)c2occc12 [Example 48] | 20 | 9 | – |
| COc1c(C(=O)/C=C/c2ccncc2)c(O)c(OC)c2occc12 [Example 49] | 20 | – | Block phasic or not [1]: not phasic |
| COc1c(C(=O)/C=C/c2cccc(C)n2)c(O)c(OC)c2occc12 [Example 50] | 12 | – | Block phasic or not [1]: not phasic; melting point: 86 to 87 °C |
| COc1c(C(=O)/C=C/c2ccc[nH]2)c(O)c(OC)c2occc12 [Example 51] | 30 | 9 | – |
| COc1c(C(=O)/C=C/c2cccn2C)c(O)c(OC)c2occc12 [Example 52] | 40 | 15 | melting point: 87 to 88 °C |
| COc1c(C(=O)/C=C/c2cccs2)c(O)c(OC)c2occc12 [Example 53] | 1.75 | 0.3 | Cytotoxicity (remark in Table 1) [2]: Cytotoxic Mp 129 Red needles |
| COc1c(C(=O)/C=C/c2sccc2C)c(O)c(OC)c2occc12 [Example 56] | 25 | 6 | – |
| COc1c(C(=O)/C=C/c2ccc([N+](=O)[O-])s2)c(O)c(OC)c2occc12 [Example 57] | – | – | Effect on Kv1.3 ([1]; at 10 μM): No effect at 10 μM |
| COc1c(C(=O)/C=C/c2ccc3ccccc3n2)c(O)c(OC)c2occc12 [Example 58] | – | – | Effect on Kv1.3 ([1]; at 5 μM): No effect at 5 μM |
| COc1c(C(=O)/C=C/c2ccccc2)c(OCc2ccccc2)c(OC)c2occc12 [Example 60] | 10 | 0.2 | – |
